In paper PMC5065773 (Antiviral research, 2016):
Like-named read-outs stand apart in the source and are kept apart here.

How the values were obtained:
DENV2 protease [1] = molecular target: T1, DENV2 protease (Dengue virus type 2, UniProt P14340); test: Tryptophan; assay type: binding, dengue virus serotype 2 (DENV2); settings: for Competition with BPTI in fluorescence quenching: 50 μM compound and 10 μM BPTI; for Quenching of tryptophan fluorescence of DENV2 protease: 0.09-50 μM inhibitor, 2 μM protease
DENV2 replicon = test: Renilla luciferase reporter replicon assay in stable BHK-21/DENV2 replicon cells; assay type: cell-based
DENV2 protease [2] = molecular target: T1, DENV2 protease; test: Determination of Ki and kinetics of inhibition; assay type: biochemical, dengue virus serotype 2 (DENV2); settings: for Mode of inhibition (Lineweaver-Burk plots): DENV2 protease
DENV2 = test: Viral RNA copy number by qRT-PCR in DENV2-infected BHK-21 cells; assay type: cell-based; settings: 24 h
WNV protease = WNV protease (West Nile virus, UniProt Q9Q6P4); test: In vitro protease assay with fluorogenic substrate Bz-Nle-Lys-Arg-Arg-AMC; assay type: biochemical; settings: for Hill-slope WNV Pro: Hill slope of IC50 curve; for inhibition at 25 µM: read-out: Inhibition of WNVpro (%) At 25 μM
BHK-21 cells = test: Cytotoxicity to BHK-21 cells; assay type: cell-based; settings: for CC50: ~24 h, CCK-8
DENV 4 Pro = DENV 4 Pro (Dengue virus type 4, UniProt P09866); test: In vitro protease assay with fluorogenic substrate Bz-Nle-Lys-Arg-Arg-AMC; assay type: biochemical, dengue virus serotype 4 (DENV4); settings: for Hill-slope DENV 4 Pro: Hill slope of IC50 curve
DENV2 protease [3] = molecular target: T1, DENV2 protease; test: as above; assay type: biochemical, dengue virus serotype 2 (DENV2); settings: for Hill-Slope DENV 2 Pro: Hill slope of IC50 curve
DENV 3 Pro = DENV 3 Pro (Dengue virus type 3, UniProt P27915); test: as above; assay type: biochemical, dengue virus serotype 3 (DENV3); settings: for Hill-slope DENV 3 Pro: Hill slope of IC50 curve
DENV 1 Pro = DENV 1 Pro (Dengue virus type 1, UniProt P17763); test: as above; assay type: biochemical, dengue virus serotype 1 (DENV1); settings: for Hill-slope DENV 1 Pro: Hill slope of IC50 curve
WNVpro = settings: read-out: Ki of BPTI against WNVpro; ref Aleshin et al., 2007; cited from earlier work
DENV2pro = settings: read-out: Ki of BPTI against DENV2pro; ref Mueller et al., 2007; cited from earlier work

T1 sequence (P14340 1476-1653): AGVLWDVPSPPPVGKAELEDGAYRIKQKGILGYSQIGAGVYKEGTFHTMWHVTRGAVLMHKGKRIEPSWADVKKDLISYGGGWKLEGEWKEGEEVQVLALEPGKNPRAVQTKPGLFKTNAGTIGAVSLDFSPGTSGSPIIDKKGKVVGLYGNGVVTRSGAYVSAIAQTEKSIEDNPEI
DENV 3 Pro, sequence (P27915 1474-1651): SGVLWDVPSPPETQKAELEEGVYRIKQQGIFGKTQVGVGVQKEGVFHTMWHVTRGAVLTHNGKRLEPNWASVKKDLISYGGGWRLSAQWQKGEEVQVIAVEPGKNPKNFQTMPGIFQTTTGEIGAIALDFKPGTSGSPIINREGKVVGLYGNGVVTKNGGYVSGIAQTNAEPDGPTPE
DENV 4 Pro, sequence (P09866 1475-1652): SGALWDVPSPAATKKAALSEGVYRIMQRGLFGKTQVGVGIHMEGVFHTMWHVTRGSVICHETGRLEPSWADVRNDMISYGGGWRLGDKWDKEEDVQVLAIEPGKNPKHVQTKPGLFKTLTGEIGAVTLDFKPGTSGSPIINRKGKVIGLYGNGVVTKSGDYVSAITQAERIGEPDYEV
WNV protease, sequence (Q9Q6P4 1428-1467): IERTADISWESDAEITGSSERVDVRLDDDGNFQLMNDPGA
WNV protease, sequence (Q9Q6P4 1506-1683): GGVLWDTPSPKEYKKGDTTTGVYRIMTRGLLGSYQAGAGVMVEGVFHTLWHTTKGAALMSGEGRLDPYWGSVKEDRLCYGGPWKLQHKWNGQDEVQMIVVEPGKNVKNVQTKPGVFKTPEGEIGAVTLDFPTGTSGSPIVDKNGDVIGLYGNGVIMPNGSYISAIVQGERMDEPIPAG
DENV 1 Pro, sequence (P17763 1394-1445, looked up, natural form): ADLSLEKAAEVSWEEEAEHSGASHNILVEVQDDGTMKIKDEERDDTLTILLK
DENV 1 Pro, sequence (P17763 1476-1660): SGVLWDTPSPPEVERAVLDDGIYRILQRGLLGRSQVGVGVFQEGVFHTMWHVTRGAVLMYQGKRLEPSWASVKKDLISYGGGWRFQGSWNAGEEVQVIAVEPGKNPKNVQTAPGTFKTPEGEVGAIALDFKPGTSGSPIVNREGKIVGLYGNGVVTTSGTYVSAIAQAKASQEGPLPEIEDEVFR

Cc1ccc(C(=O)c2cc(O)c(O)c([N+](=O)[O-])c2)cc1 [Compound F, Tolcapone]
Competition with BPTI in fluorescence quenching (DENV2 protease [1]): did not compete with BPTI | Quenching of tryptophan fluorescence of DENV2 protease (DENV2 protease [1]): quenched tryptophan fluorescence in a dose dependent manner | EC50 (DENV2 replicon; Dengue virus, DENV2, BHK-21, 24 h, read-out: EC50 (μM) DENV2 Replicon): 2.29 ± 0.3 µM | Inhibition of DENV2 replicon replication (DENV2 replicon; screened at 5, 10 and 25 μM vs 1% DMSO control): inhibit DENV2 replication | Ki (DENV2 protease [2]): 0.22 ± 0.03 µM | Mode of inhibition (Lineweaver-Burk plots) (DENV2 protease [2]): competitive inhibition | Inhibition of DENV2 viral RNA (qRT-PCR) vs DMSO control (DENV2; 2 μM compound): good inhibition | IC50 (WNV protease): 0.7 ± 0.04 µM | Hill-slope WNV Pro (WNV protease): 1.58±0.05 | inhibition at 25 µM (WNV protease): 95% | CC50 (BHK-21 cells): 29.2 µM | IC50 (DENV 4 Pro): 0.64 ± 0.03 µM | Hill-slope DENV 4 Pro (DENV 4 Pro): 1.45±0.05 | IC50 (DENV2 protease [3]): 0.98 ± 0.06 µM | Hill-Slope DENV 2 Pro (DENV2 protease [3]): 1.51±0.07 | Hill-slope DENV 3 Pro (DENV 3 Pro): 1.60±0.08 | IC50 (DENV 1 Pro): 1.15 ± 0.1 µM | Hill-slope DENV 1 Pro (DENV 1 Pro): 1.26±0.10

Cc1ccc(C(=O)Nc2ccc(S(=O)(=O)O)c3cc(S(=O)(=O)O)cc(S(=O)(=O)O)c23)cc1NC(=O)c1cccc(NC(=O)Nc2cccc(C(=O)Nc3cc(C(=O)Nc4ccc(S(=O)(=O)O)c5cc(S(=O)(=O)O)cc(S(=O)(=O)O)c45)ccc3C)c2)c1 [Compound H, Suramin]
Quenching of tryptophan fluorescence of DENV2 protease (DENV2 protease [1]): failed to quench the tryptophan fluorescence | Ki (DENV2 protease [2]): 0.87 ± 0.14 µM | Inhibition of DENV2 viral RNA (qRT-PCR) vs DMSO control (DENV2; 10 μM compound): good inhibition | IC50 (WNV protease): 3.24 ± 0.11 µM | Hill-slope WNV Pro (WNV protease): 1.29±0.03 | inhibition at 10 µM (WNV protease; read-out: Inhibition of WNVpro (%) At 10 μM): 58% | inhibition at 25 µM (WNV protease): 73% | Cytotoxicity at the highest concentration tested (BHK-21 cells; ~ 100 μM, 24 h): did not exhibit any cytotoxicity | IC50 (DENV 4 Pro): 3.73 ± 0.14 µM | Hill-slope DENV 4 Pro (DENV 4 Pro): 1.25±0.12 | IC50 (DENV2 protease [3]): 2.66 ± 0.19 µM | Hill-Slope DENV 2 Pro (DENV2 protease [3]): 0.97±0.04 | inhibition at 10 µM (DENV2 protease [3]; read-out: Inhibition of DENV2pro (%) At 10 μM): 72% | inhibition at 25 µM (DENV2 protease [3]; read-out: Inhibition of DENV2pro (%) At 25 μM): 85% | IC50 (DENV 3 Pro): 3.25 ± 0.18 µM | Hill-slope DENV 3 Pro (DENV 3 Pro): 1.05±0.04 | IC50 (DENV 1 Pro): 2.76 ± 0.25 µM | Hill-slope DENV 1 Pro (DENV 1 Pro): 0.92±0.05

Bovine pancreatic trypsin inhibitor [BPTI]
Ki (WNVpro): 0.024 µM | Ki (DENV2pro): 0.026 µM

Tannic acid [Compound G]
Competition with BPTI in fluorescence quenching (DENV2 protease [1]): partially restore the fluorescence | Quenching of tryptophan fluorescence of DENV2 protease (DENV2 protease [1]): quenched tryptophan fluorescence in a dose dependent manner | Mode of inhibition (Lineweaver-Burk plots) (DENV2 protease [2]): competitive inhibition | Ki (DENV2 protease [2]; competitive inhibition model, 20 nM DENV2 protease): 0.34 ± 0.05 µM | Inhibition of DENV2 viral RNA (qRT-PCR) vs DMSO control (DENV2; 2 μM compound): good inhibition | Inhibition of WNVpro (%) At 10 μM (WNV protease; 10 μM compound): 98% | Inhibition of WNVpro (%) At 25 μM (WNV protease; 25 μM compound): 96% | Hill-slope WNV Pro (WNV protease): 0.88±0.05 | IC50 (WNV protease; read-out: IC50 WNV Pro, mean of duplicate experiments ± SEM): 0.12 ± 0.01 µM | CC50 (BHK-21 cells): 68.1 µM | Hill-slope DENV 4 Pro (DENV 4 Pro): 0.79±0.03 | Inhibition of DENV2pro (%) At 10 μM (DENV2 protease [3]; 10 μM compound): 99% | Inhibition of DENV2pro (%) At 25 μM (DENV2 protease [3]; 25 μM compound): 101% | Hill-Slope DENV 2 Pro (DENV2 protease [3]): 1.60±0.07 | Hill-slope DENV 3 Pro (DENV 3 Pro): 1.53±0.06 | Hill-slope DENV 1 Pro (DENV 1 Pro): 1.79±0.09
